Experimental data published in patent publication US9179694B2, “Method and composition for enhancing milk production and milk component concentrations” (PURINA ANIMAL NUTRITION LLC, priority 2003, dated 2015).

Assay: Dry matter feed intake in sorbitol feeding trials
Type: in vivo, Holstein cows
Protocol: To determine the dry matter weight (or dry matter basis or dry basis) of a particular sample, the sample is first weighed. The weighed sample is then dried in an oven at a temperature that is adequate to drive off moisture from the sample without degrading the sample components, such as a temperature ranging from about 100° C. to about 110° C. The oven drying is continued until the weight of the dried sample remains constant, despite additional oven drying. During the pre-partum period, for all cows utilized in Example One or Example Two, the pre-partum control feed, as modified to include any sorbitol indicated above for the different trials, was placed in the feeding troughs of the different cows participating in the different trials once daily in the morning. Thereafter, these different pre-partum feeds (the pre-partum control feed, including any incorporated sorbitol dosage of a particular trial during the pre-partum period) of the different trials were lightly stirred, separately and individually, in front of the cows of the different trials three times per day during the pre-partum period to encourage additional feed ingestion by the cows. Leftover rations from the previous day's feeding were collected and weighed from each feeding trough during the pre-partum period, prior to feeding the test cows on a subsequent day. The cows of the different trials received a sufficient amount of the pre-partum to ensure at least about ten weight percent of the pre-partum feeds of the different trials remained in the feeding troughs of each trial each day of the pre-partum period, based on the amount of the different pre-partum feeds of the different trials provided at the beginning of each day. Feed refusals were measured daily during the pre-partum period, and water was supplied ad libitum. During the early post-partum period, for all cows utilized in Example One or Example Two, the first post-partum control feed, as modified to include any sorbitol indicated above for the different trials, was placed in the feeding troughs of the different cows participating in the different trials once daily in the morning. Thereafter, these first post-partum feeds (the first post-partum control feed, including any incorporated sorbitol dosage of a particular trial during the early post-partum period) of the different trials were lightly stirred, separately and individually, in front of the cows of the different trials three times per day during the early post-partum period to encourage additional feed ingestion by the cows. Leftover rations from the previous day's feeding were collected and weighed from each feeding trough during the early post-partum period, prior to feeding the test cows on a subsequent day. The cows of the different trials received a sufficient amount of the first post-partum feed to ensure at least about ten weight percent of the first post-partum feeds of the different trials remained in the feeding troughs of each trial each day of the early post-partum period, based on the amount of the different first post-partum feeds of the different trials provided at the beginning of each day. Feed refusals were measured daily during the early post-partum period, and water was supplied ad libitum. […] Thereafter, the second post-partum control feed were lightly stirred, separately and individually, in front of the cows of the different trials three times per day during the weeks +5 through +8 to encourage additional feed ingestion by the cows. Leftover rations from the previous day's feeding were collected and weighed from each feeding trough during weeks +5 through +8, prior to feeding the test cows on a subsequent day. […]

OC[C@@H](O)[C@@H](O)[C@H](O)[C@@H](O)CO [sorbitol]
Dry Matter Feed Intake (Pre/Post Trial #1 (150/125/100 g/day in wk −3..−1/+1..+4/+5..+8), multiparious cows, week +7, two-trial comparison with Control Trial #2 (Table 22)): 54.9 lbs/day
Dry Matter Intake (Pre/Post Trial #1 (150/125/100 g/day in wk −3..−1/+1..+4/+5..+8), multiparious cows, week +8): 57.1 lbs/day
Dry Matter Feed Intake (Pre/Post Trial #1 (150/125/100 g/day in wk −3..−1/+1..+4/+5..+8), multiparious cows, week +8, two-trial comparison with Control Trial #2 (Table 22)): 57.4 lbs/day
Dry Matter Intake (Pre/Post Trial #1 (150/125/100 g/day in wk −3..−1/+1..+4/+5..+8), multiparious cows, week −1): 33.3 lbs/day
Dry Matter Feed Intake (Pre/Post Trial #1 (150/125/100 g/day in wk −3..−1/+1..+4/+5..+8), multiparious cows, week −1, two-trial comparison with Control Trial #2 (Table 22)): 33.4 lbs/day
Dry Matter Intake (Pre/Post Trial #1 (150/125/100 g/day in wk −3..−1/+1..+4/+5..+8), multiparious cows, week −2): 34.6 lbs/day
Dry Matter Feed Intake (Pre/Post Trial #1 (150/125/100 g/day in wk −3..−1/+1..+4/+5..+8), multiparious cows, week −2, two-trial comparison with Control Trial #2 (Table 22)): 35.2 lbs/day
Change in Dry Matter Feed Intake (Pre/Post Trial #1 (150/125/100 g/day in wk −3..−1/+1..+4/+5..+8), multiparious cows, week −2 versus −1): −1.39 lbs/day
Change in Dry Matter Feed Intake (Pre/Post Trial #1 (150/125/100 g/day in wk −3..−1/+1..+4/+5..+8), multiparious cows, week −2 versus −1, two-trial comparison with Control Trial #2 (Table 22)): −1.83 lbs/day
Dry Matter Intake (Pre/Post Trial #1 (150/125/100 g/day in wk −3..−1/+1..+4/+5..+8), multiparious cows, week −3): 29.6 lbs/day
Dry Matter Feed Intake (Pre/Post Trial #1 (150/125/100 g/day in wk −3..−1/+1..+4/+5..+8), multiparious cows, week −3, two-trial comparison with Control Trial #2 (Table 22)): 30.7 lbs/day
Dry Matter Intake (Pre/Post Trial #1 (150/125/100 g/day in wk −3..−1/+1..+4/+5..+8), multiparious cows, weeks +1 through +4): 45.4 lbs/day
Dry Matter Feed Intake (Pre/Post Trial #1 (150/125/100 g/day in wk −3..−1/+1..+4/+5..+8), multiparious cows, weeks +1 through +4, two-trial comparison with Control Trial #2 (Table 22)): 45.7 lbs/day
Dry Matter Intake (Pre/Post Trial #1 (150/125/100 g/day in wk −3..−1/+1..+4/+5..+8), multiparious cows, weeks +1 through +8): 50.1 lbs/day
Dry Matter Feed Intake (Pre/Post Trial #1 (150/125/100 g/day in wk −3..−1/+1..+4/+5..+8), multiparious cows, weeks +1 through +8, two-trial comparison with Control Trial #2 (Table 22)): 50.4 lbs/day
Dry Matter Intake (Pre/Post Trial #1 (150/125/100 g/day in wk −3..−1/+1..+4/+5..+8), multiparious cows, weeks +5 through +8): 54.9 lbs/day
Dry Matter Feed Intake (Pre/Post Trial #1 (150/125/100 g/day in wk −3..−1/+1..+4/+5..+8), multiparious cows, weeks +5 through +8, two-trial comparison with Control Trial #2 (Table 22)): 55.3 lbs/day
Dry Matter Intake (Pre/Post Trial #1 (150/125/100 g/day in wk −3..−1/+1..+4/+5..+8), multiparious cows, weeks −3 through −1): 32.6 lbs/day
Dry Matter Feed Intake (Pre/Post Trial #1 (150/125/100 g/day in wk −3..−1/+1..+4/+5..+8), multiparious cows, weeks −3 through −1, two-trial comparison with Control Trial #2 (Table 22)): 33.0 lbs/day
greater increase of dry matter feed intake (Pre/Post Trial #1 (150/125/100 g/day) compared to Control Trial #2, multiparous cows, week −1 before calving versus week +1 after calving): 3.19 pounds per day
greater daily rate of dry matter feed intake (Pre/Post Trial #1 (150/125 g/day pre-/early post-partum) versus Pre/Post Trial #2 (75/75 g/day), multiparious cows, early post-partum period (weeks +1 through +4)): 7.6%
Dry Matter Intake (Pre/Post Trial #2 (75/75/100 g/day in wk −3..−1/+1..+4/+5..+8), multiparious cows, week +1): 33.1 lbs/day
Change in Dry Matter Feed Intake (Pre/Post Trial #2 (75/75/100 g/day in wk −3..−1/+1..+4/+5..+8), multiparious cows, week +1 versus −1): 0.72 lbs/day
Dry Matter Intake (Pre/Post Trial #2 (75/75/100 g/day in wk −3..−1/+1..+4/+5..+8), multiparious cows, week +2): 41.2 lbs/day
Dry Matter Intake (Pre/Post Trial #2 (75/75/100 g/day in wk −3..−1/+1..+4/+5..+8), multiparious cows, week +3): 45.3 lbs/day
Dry Matter Intake (Pre/Post Trial #2 (75/75/100 g/day in wk −3..−1/+1..+4/+5..+8), multiparious cows, week +4): 49.8 lbs/day
Dry Matter Intake (Pre/Post Trial #2 (75/75/100 g/day in wk −3..−1/+1..+4/+5..+8), multiparious cows, week +5): 53.6 lbs/day
Dry Matter Intake (Pre/Post Trial #2 (75/75/100 g/day in wk −3..−1/+1..+4/+5..+8), multiparious cows, week +6): 54.2 lbs/day
Dry Matter Intake (Pre/Post Trial #2 (75/75/100 g/day in wk −3..−1/+1..+4/+5..+8), multiparious cows, week +7): 53.3 lbs/day
Dry Matter Intake (Pre/Post Trial #2 (75/75/100 g/day in wk −3..−1/+1..+4/+5..+8), multiparious cows, week +8): 55.0 lbs/day
Dry Matter Intake (Pre/Post Trial #2 (75/75/100 g/day in wk −3..−1/+1..+4/+5..+8), multiparious cows, week −1): 32.3 lbs/day
Dry Matter Intake (Pre/Post Trial #2 (75/75/100 g/day in wk −3..−1/+1..+4/+5..+8), multiparious cows, week −2): 36.3 lbs/day
Change in Dry Matter Feed Intake (Pre/Post Trial #2 (75/75/100 g/day in wk −3..−1/+1..+4/+5..+8), multiparious cows, week −2 versus −1): −3.91 lbs/day
Dry Matter Intake (Pre/Post Trial #2 (75/75/100 g/day in wk −3..−1/+1..+4/+5..+8), multiparious cows, week −3): 31.9 lbs/day
Dry Matter Intake (Pre/Post Trial #2 (75/75/100 g/day in wk −3..−1/+1..+4/+5..+8), multiparious cows, weeks +1 through +4): 42.2 lbs/day
Dry Matter Intake (Pre/Post Trial #2 (75/75/100 g/day in wk −3..−1/+1..+4/+5..+8), multiparious cows, weeks +1 through +8): 48.2 lbs/day
Dry Matter Intake (Pre/Post Trial #2 (75/75/100 g/day in wk −3..−1/+1..+4/+5..+8), multiparious cows, weeks +5 through +8): 54.1 lbs/day
Dry Matter Intake (Pre/Post Trial #2 (75/75/100 g/day in wk −3..−1/+1..+4/+5..+8), multiparious cows, weeks −3 through −1): 33.2 lbs/day
decrease in dry matter feed intake (average of means of Pre-Partum Trial #2, Pre/Post Trial #1 and Pre/Post Trial #2 versus Control Trial #2, multiparious cows, pre-partum period (weeks −3 through −1)): 4.9%
